What was measured:
BRD2 = experiment: Cellular degradation assay, eGFP-BRD2BD1/BRD2BD2 mCherry reporters in Flip-In 293 cells; type: cell-based; details: BRD2BD1 and BRD2BD2 reporters, 5 h; compound 2 active via BRD2BD2
Experimental: (§1) IKZF1 (construct IKZF1^Δ1-82/Δ197-238/Δ256-519) BRD2BD1, BRD2BD2, BRD3BD1, BRD3BD2, BRD4BD1, and BRD4BD2 were subcloned into mammalian pcDNA5/FRT Vector (Ampicillin and Hygromycin B resistant) modified to contain MCS-eGFP-P2A-mCherry. Stable cell lines expressing eGFP-protein fusion and mCherry reporter were generated using Flip-In 293 system. Plasmid (0.3 μg) and pOG44 (4.7 μg) DNA were preincubated in 100 μL of Opti-MEM I (Gibco™ Life Technologies™) media containing 0.05 mg/ml Lipofectamine 2000 (Invitrogen™) for 20 min and added to Flip-In 293 cells containing 1.9 ml of DMEM media (Gibco™, Life Technologies™) per well in a 6-well plate format (Falcon®, 353046). […] Titrated compounds were incubated with cells for 5 h following trypsinisation and resuspension in DMEM media, transferred into 96-well plates (353910, Falcon®) and analyzed by flow cytometer (Guava© easyCyte HT, Millipore™) Signal from 5000 cells per well was acquired in singlicate or duplicate and the eGFP and mCherry florescence monitored. Data was analyzed using FlowJo® (FlowJo®, LCC). Forward and side scatter outliers, frequently associated with cell debris, were removed leaving >90% of total cells, followed by removal of eGFP and mCherry signal outliers, leaving 88-90% of total cells creating the set used for quantification. […]

BRD3 = experiment: Cellular degradation assay, eGFP-BRD3BD1/BRD3BD2 mCherry reporters in Flip-In 293 cells; type: cell-based; details: BRD3BD1 and BRD3BD2 reporters, 5 h; both compounds active via BD1 and BD2
Experimental: as §1

BRD4 = experiment: Cellular degradation assay, eGFP-BRD4BD1/BRD4BD2 mCherry reporters in Flip-In 293 cells; type: cell-based; details: BRD4BD1 and BRD4BD2 reporters, 5 h; compound 2 via BD1 and BD2, compound 1 via BD1
Experimental: as §1

[1] = tested on: bromodomain proteins BRD2, 3 and 4; experiment: Change of cellular protein abundance (TMT quantitative proteomics) in Kelly cells; type: cell-based, human; details: 1 μM, 6 hours, compared to DMSO control
Experimental: Kelly cells were treated with DMSO control (biological triplicates) or 1 μM of inventive compound 1 or compound 2 for 6 hours (biological singlicate). Lysis buffer (8 M Urea, 50 mM NaCl, 50 mM 4-(2hydroxyethyl)-1-piperazineethanesulfonic acid (EPPS) pH 8.5, Protease and Phosphatase inhibitors from Roche) was added to the cell pellets and homogenized by 20 passes through a 21 gauge (1.25 in. long) needle to achieve a cell lysate with a protein concentration between 1-4 mg mL^−1. A Micro BCA™ assay (Pierce™) was used to determine the final protein concentration in the cell lysate. 200 μg of protein for each sample were reduced and alkylated as previously described.
Proteins were precipitated using methanol/chloroform/water (4:1:3). In brief, four volumes of methanol were added to the cell lysate, followed by one volume of chloroform, and finally three volumes of water. The mixture was vortexed and centrifuged to separate the chloroform phase from the aqueous phase. The precipitated protein was washed with three volumes of methanol, centrifuged and the resulting washed precipitated protein was allowed to air dry. Precipitated protein was resuspended in 4 M Urea, 50 mM 4-(2-hydroxyethyl)-1-piperazineethanesulfonic acid (HEPES) pH 7.4, followed by dilution to 1 M urea with the addition of 200 mM EPPS, pH 8. Proteins were first digested with LysC (1:50; enzyme:protein) for 12 hours at room temperature. The LysC digestion was diluted to 0.5 M Urea with 200 mM EPPS pH 8 followed by digestion with trypsin (1:50; enzyme:protein) for 6 hours at 37° C. Tandem mass tag (TMT) reagents (Thermo Fisher Scientific) were dissolved in anhydrous acetonitrile (ACN) according to manufacturer's instructions. Anhydrous ACN was added to each peptide sample to a final concentration of 30% v/v, and labeling was induced with the addition of TMT reagent to each sample at a ratio of 1:4 peptide:TMT label. The 10-plex labeling reactions were performed for 1.5 hours at room temperature and the reaction quenched by the addition of hydroxylamine to a final concentration of 0.3% for 15 minutes at room temperature. The sample channels were combined at a 1:1:1:1:1:1:1:1:1:1 ratio, desalted using C18 solid phase extraction cartridges (Waters) and analyzed by LC-MS for channel ratio comparison. Samples were then combined using the adjusted volumes determined in the channel ratio analysis and dried down in a speed vacuum. The combined sample was then resuspended in 1% formic acid, and acidified (pH 2-3) before being subjected to desalting with C18 SPE (Sep-Pak®, Waters). […]

DDB1ΔB-CRBN = DDB1ΔB-CRBN (Homo sapiens (Human), UniProt Q96SW2); experiment: Atto565-Lenalidomide FP displacement assay (CRBN binding); details: for CRBN binding (in words), IC50 comparable to lenalidomide: FP displacement assay, FIG. 3A-3D; for IC50: FP displacement of 10 nM Atto565-Lenalidomide, 100 nM DDB1ΔB-CRBN, n=3; for Ki: FP displacement of Atto565-Lenalidomide
Experimental: Compounds in Atto565-Lenalidomide displacement assay were dispensed in a 384-well microplate (Corning, 4514) using D300e Digital Dispenser (HP) normalized to 1% DMSO into 10 nM Atto565-Leanlidomide, 100 nM DDB1ΔB-CRBN, 50 mM Tris pH 7.5, 200 mM NaCl, 0.1% Pluronic® F-68 solution (Sigma). Compound titrations were incubated for 60 min at RT. The change in fluorescence polarization was monitored using a PHERAstar® FS microplate reader (BMG Labtech) for 1 h in 120 s cycles. Data from three independent replicates (n=3) was used to estimate IC50 values using variable slope equation in GraphPad Prism 7.

MM1.S cells = experiment: MM1.S cell proliferation; type: cell-based; details: Homo sapiens
IKZF1 = IKZF1 (Homo sapiens (Human), UniProt Q13422+Q96SW2, DEL197-238/DEL256-519); experiment: Cellular degradation assay, eGFP-IKZF1/mCherry reporter in Flip-In 293 cells; type: cell-based; details: 5 h incubation, eGFP/mCherry relative abundance, FIG. 1A-1C
Experimental: Following 2-3 passage cycle FACS (FACSAria™ II, BD) was used to enrich for cells expressing eGFP and mCherry. […] Data was analyzed using FlowJo® (FlowJo®, LCC). […] The eGFP protein abundance relative to mCherry was then quantified as a ten-fold amplified ratio for each individual cell using the formula: 10×eGFP/mCherry. The median of the ratio was then calculated per set, normalized to the median of the DMSO ratio, and is denoted as relative abundance.

Sequence of DDB1ΔB-CRBN (Q96SW2 whole entry, stated change not applied): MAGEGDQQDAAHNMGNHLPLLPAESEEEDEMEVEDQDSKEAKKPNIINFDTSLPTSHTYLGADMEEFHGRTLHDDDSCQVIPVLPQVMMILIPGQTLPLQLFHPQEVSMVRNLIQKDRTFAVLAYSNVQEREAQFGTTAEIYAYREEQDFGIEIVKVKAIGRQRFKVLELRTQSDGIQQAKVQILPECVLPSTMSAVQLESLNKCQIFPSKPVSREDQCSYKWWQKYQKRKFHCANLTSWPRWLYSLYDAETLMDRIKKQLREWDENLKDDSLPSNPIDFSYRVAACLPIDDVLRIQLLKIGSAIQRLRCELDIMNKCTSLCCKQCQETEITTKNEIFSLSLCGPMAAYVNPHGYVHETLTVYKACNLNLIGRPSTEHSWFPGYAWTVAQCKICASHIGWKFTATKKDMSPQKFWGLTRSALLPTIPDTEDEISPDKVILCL

| CRBN binding (in words), IC50 comparable to lenalidomide (DDB1ΔB-CRBN) | IC50 (DDB1ΔB-CRBN) | Ki (DDB1ΔB-CRBN) | IC50 (MM1.S cells) | activity against the target IKZF1 (degradation, in words) (IKZF1) | Compound | degradation activity against BRD2 (in words) (BRD2) | degradation activity against BRD3 (in words) (BRD3) | degradation activity against BRD4 (in words) (BRD4) | change in relative abundance of endogenous bromodomain proteins (in words) [1] | degradation of common IMiD-dependent off-targets (in words) [1] |
| --- | --- | --- | --- | --- | --- | --- | --- | --- | --- | --- |
| potent binders of CRBN | 3.5 µM | 0.98 µM | – | inactive | O=C1CCC(N2C(=O)c3cccc4cc(O)cc(c34)C2=O)C(=O)N1 (centres unmarked) [Compound 10, 2-(2,6-dioxopiperidin-3-yl)-5-hydroxy-1H-benzo[de]isoquinoline-1,3(2H)-dione] | – | – | – | – | – |
| potent binders of CRBN | 11.4 µM | 3.2 µM | – | inactive | Nc1cc2c3c(cccc3c1)C(=O)N(C1CCC(=O)NC1=O)C2=O (centres unmarked) [Compound 11, 5-amino-2-(2,6-dioxopiperidin-3-yl)-1H-benzo[de]isoquinoline-1,3(2H)-dione] | – | – | – | – | – |

Continued, molecule first:

| Compound | CRBN binding (in words), IC50 comparable to lenalidomide (DDB1ΔB-CRBN) | IC50 (DDB1ΔB-CRBN) | Ki (DDB1ΔB-CRBN) | IC50 (MM1.S cells) | activity against the target IKZF1 (degradation, in words) (IKZF1) | degradation activity against BRD2 (in words) (BRD2) | degradation activity against BRD3 (in words) (BRD3) | degradation activity against BRD4 (in words) (BRD4) | change in relative abundance of endogenous bromodomain proteins (in words) [1] | degradation of common IMiD-dependent off-targets (in words) [1] |
| --- | --- | --- | --- | --- | --- | --- | --- | --- | --- | --- |
| COC(=O)C[C@@H]1N=C(c2ccc(Cl)cc2)c2c(sc(C(=O)NCCCCCOc3cc4c5c(cccc5c3)C(=O)N(C3CCC(=O)NC3=O)C4=O)c2C)-n2c(C)nnc21 (stereo partly drawn) [Compound 1, methyl 2-((6S)-4-(4-chlorophenyl)-2-((5-((2-(2,6-dioxopiperidin-3-yl)-1,3-dioxo-2,3-dihydro-1H-benzo[de]isoquinolin-5-yl)oxy)pentyl)carbamoyl)-3,9-dimethyl-6H-thieno[3,2-f][1,2,4]triazolo[4,3-a][1,4]diazepin-6-yl)acetate] | – | – | – | – | – | inactive | active | active | downregulation of bromodomain proteins BRD4 | did not induce degradation |
| Cc1sc2c(c1C)C(c1ccc(Cl)cc1)=N[C@@H](CC(=O)NCCCCCCCCNC(=O)COc1cc3c4c(cccc4c1)C(=O)N(C1CCC(=O)NC1=O)C3=O)c1nnc(C)n1-2 (stereo partly drawn) [Compound 2, 2-((S)-4-(4-chlorophenyl)-2,3,9-trimethyl-6H-thieno[3,2-f][1,2,4]triazolo [4,3-a][1,4]diazepin-6-yl)-N-(8-(2-(2-(2,6-dioxopiperidin-3-yl)-1,3-dioxo-2,3-dihydro-1H-benzo[de]isoquinolin-5-yloxy)acetamido)octyl)acetamide] | – | – | – | – | – | active | active | active | downregulation of bromodomain proteins BRD2, 3 and 4 | did not induce degradation |
| O=C1CCC(N2C(=O)c3cccc4cccc(c34)C2=O)C(=O)N1 (centres unmarked) [Compound 9, 2-(2,6-dioxopiperidin-3-yl)-1H-benzo[de]isoquinoline-1,3(2H)-dione] | potent binders of CRBN | 2.6 µM | 0.7 µM | ~21.5 µM | inactive | – | – | – | – | – |

Source: patent publication US12030892B2, “CRBN modulators” (DANA-FARBER CANCER INSTITUTE, INC., priority 2018, dated 2024)
